Data set [1] has as its system HepG-2 cells. As to the kind of experiment: MTT assay, cytotoxic effects on HepG-2 cells. Particulars: 48 h. It counts as cell-based, human. As for the experimental part:
(§1) Primary hepatocytes were isolated from male SD rats weighing 250–300 g using a modified in situ collagenase perfusion method and then the cells were cultured in Dulbecco’s Modified Eagle’s Medium (DMEM) with 2 g/L bovine serum albumin (BSA) and 50 mg/L gentamicin. HepG-2 cells were incubated in RPMI 1640 medium supplemented with 10% fetal bovine serum (FBS) and 1% penicillin–streptomycin liquid. Cells were incubated at 37 °C in a humidified atmosphere of 95% air and 5% CO2. Stock solutions of compounds and cisplatin were prepared in dimethyl sulfoxide (DMSO), then added to fresh culture medium to obtain final concentrations.
Next, compounds b14 and b18 were prepared in five different concentrations (20 µM, 40 µM, 60 µM, 80 µM, 100 µM), and compounds b15, b16, and b17, along with cisplatin, were prepared in seven different concentrations (2.5 µM, 5 µM, 7.5 µM, 10 µM, 20 µM, 40 µM, 60 µM). A suspension of growing cells (50,000/mL) was prepared, and 100 µL/well dispensed into 96-well plates, yielding a density of 5000 cells/well. The cells were incubated for 24 h before adding the pyrazoline derivatives. The optimal cell number for cytotoxicity assays was determined in preliminary experiments. At the end of the incubation period, the medium was removed and 100 µL of different concentrations of pyrazoline derivatives were added to wells for 24 h and 48 h. Following the exposure period, 20 µL of MTT (5 mg/mL) were added to cells and incubated for a further 4 h at 37 °C. The medium was removed and the formazan crystals were solubilized by adding 150 µL DMSO to each well. After 10 min of shaking, the absorbance was measured at 550 nm using a FilterMax F5 Multi-Mode Microplate Reader (Energy Chemical, Shanghai, China). Cells were treated with each compound with four replicates per concentration, and each experiment was conducted at least three times. Dose–inhibition rate curves and IC50 values, defined as the drug concentrations which reduced absorbance to 50% of control values, were then generated.
Background: Formazan colour is commonly taken as a measure of viable cells.

In data set [2] the test system is primary hepatocytes. As to the kind of experiment: MTS assay, cytotoxicity against primary hepatocytes. The class given is cell-based, rat. The following applies: for IC50: Rattus norvegicus, Hepatocyte, 48 h; for cytotoxicity against primary hepatocytes (in words): compared with HepG-2. Here is the method: as §1
The cytotoxicological activity of compounds b5, b9, and b14–18 were evaluated against primary hepatocytes using the MTS assay (Cell Titer 96® Aqueous Cell Proliferation Assay, Promega, Cat. No. G5421) as a fast and sensitive quantification of cell proliferation and viability. The concentrations of compounds were prepared in seven different concentrations (2.5 µM, 5 µM, 10 µM, 20 µM, 40 µM, 80 µM, 160 µM). Cells were seeded into 96-well plates at a density of 26,000 cells/well. The plates were incubated for 24 h prior to any treatment. At the end of this period, the medium was removed and 100 µL of different concentrations of pyrazoline derivatives were added to wells for 48 h. Following the exposure period, 20 μL of the combined MTS/PMS solution was added to cells and incubated for a further 2 h at 37 °C, then the absorbance was recorded at 490 nm using an ELISA Plate Reader (ELISA, Emeryville, CA, USA). The values of IC50, the effective concentration at which 50% of the primary hepatocytes were inhibited, were calculated to evaluate the cytotoxic activities.

Setting [3] is: Homo sapiens, HepG2, HepG-2 cell line, read-out: IC50 HepG-2.
Where [4] appears, read: Homo sapiens, HepG2, HepG-2 cells, read-out: IC50 against HepG-2 cells.

Molecules are shown by their SMILES. Like-named read-outs stand apart in the source and are kept apart here. Some results are limits rather than exact numbers.

Here are results for 19 molecules from publication PMC6155299, “Synthesis and Evaluation of New Pyrazoline Derivatives as Potential Anticancer Agents in HepG-2 Cell Line” (Molecules : A Journal of Synthetic Chemistry and Natural …, 2017).

In general, melting point refers to the temperature of the solid-liquid transition. The term IC50 denotes the concentration needed to halve the response being measured. With `COc1cc(C2CC(c3ccccc3O)=NN2S(=O)(=O)c2ccc(C)cc2)cc(OC)c1O` (centres unmarked) [b9, 4-[5-(2-Hydroxyphenyl)-2-(toluene-4-sulfonyl)-3,4-dihydro-2H-pyrazol-3-yl]-2,6-dimethoxy-phenol], the melting point was in the range of 194.6 to 194.7 °C. For the same molecule, in data set [1] (setting [3]), the IC50 was determined as 12 ± 1.83 µM. In data set [1] (setting [4]), the half-inhibitory concentration (IC50) is less than 50 µM. For the same molecule, in data set [2], 29.7 ± 2.43 µM corresponded to half-maximal inhibition (IC50) and the “cytotoxicity against primary hepatocytes (in words)” value was “lower cytotoxicological activity”.

For `COc1cc(C2CC(c3ccccc3O)=NN2)cc(Br)c1O` (centres unmarked) [b3, 2-Bromo-4-[5-(2-hydroxyphenyl)-3,4-dihydro-2H-pyrazol-3-yl]-6-methoxy-phenol], the melting point was 181.8 to 183.9 °C. The IC50 in data set [1] (setting [3]) was more than 50 µM.

On to `COc1cc(C2CC(c3ccccc3O)=NN2C(=O)c2ccccc2[N+](=O)[O-])cc(OC)c1O` (centres unmarked) [b10, [5-(4-Hydroxy-3,5-dimethoxyphenyl)-3-(2-hydroxyphenyl)-4,5-dihydro-pyrazol-1-yl]-(2-nitrophenyl)-methanone], for which the melting point lay in the range of 194.6 to 194.7 °C. In addition, the 50% inhibitory concentration (IC50) in data set [1] (setting [3]) was more than 50 µM.

In turn, `COc1cc(C2CC(c3ccc([N+](=O)[O-])cc3)=NN2)cc(Br)c1O` (centres unmarked) [b4, 2-Bromo-6-methoxy-4-[5-(4-nitrophenyl)-3,4-dihydro-2H-pyrazol-3-yl]-phenol] registered a melting point of 208.6 to 208.9 °C. The IC50 in data set [1] (setting [3]) is more than 50 µM.

For the molecule `COc1cc(C2CC(c3ccccc3O)=NN2C(=O)c2cc([N+](=O)[O-])cc([N+](=O)[O-])c2)cc(OC)c1O` (centres unmarked) [b13, (3,5-Dinitrophenyl)-[5-(4-hydroxy-3,5-dimethoxyphenyl)-3-(2-hydroxyphenyl)-4,5-dihydro-pyrazol-1-yl]-methanone], the melting point was in the range of 240.4 to 240.9 °C. Also, the IC50 in data set [1] (setting [3]) was more than 50 µM.

Regarding `COc1cc(C2CC(c3ccccc3O)=NN2S(=O)(=O)c2cccc([N+](=O)[O-])c2)cc(OC)c1O` (centres unmarked) [b7, 4-[5-(2-Hydroxyphenyl)-2-(3-nitro-benzenesulfonyl)-3,4-dihydro-2H-pyrazol-3-yl]-2,6-dimethoxy-phenol], the melting point was 131.9 to 133.5 °C. The IC50 in data set [1] (setting [3]) was more than 50 µM.

In turn, `COc1cc(C2CC(c3ccccc3O)=NN2c2ccccc2)cc(OC)c1O` (centres unmarked) [b18, 4-[5-(2-Hydroxyphenyl)-2-phenyl-3,4-dihydro-2H-pyrazol-3-yl]-2,6-dimethoxy-phenol] showed a melting point of 169.7 to 170.8 °C. Besides, the IC50 in data set [1] (setting [3]) is 28.5 ± 1.34 µM. The midpoint of inhibition in data set [2], the IC50, lay at 50.7 ± 3.21 µM.

With `N.N.[Cl][Pt][Cl]` [Cisplatin, cisplatin, reference compound], the half-inhibitory concentration (IC50) in data set [1] (HepG-2 cell line, read-out: IC50 HepG-2) was 8.45 ± 1.05 µM.

`COc1cc(C2CC(c3ccccc3O)=NN2C(=O)c2ccco2)cc(OC)c1O` (centres unmarked) [b16, Furan-2-yl-[5-(4-hydroxy-3,5-dimethoxyphenyl)-3-(2-hydroxyphenyl)-4,5-dihydro-pyrazol-1-yl]-methanone] returned a melting point of 201.1 to 203.7 °C. In addition, the IC50 in data set [1] (setting [3]) was 4.61 ± 1.27 µM. Moreover, in data set [2], the IC50 is 20.7 ± 1.72 µM.

In turn, `COc1cc(C2CC(c3ccccc3O)=NN2C(=O)c2ccc([N+](=O)[O-])cc2)cc(OC)c1O` (centres unmarked) [b12, [5-(4-Hydroxy-3,5-dimethoxyphenyl)-3-(2-hydroxyphenyl)-4,5-dihydro-pyrazol-1-yl]-(4-nitrophenyl)-methanone] yielded a melting point of 250.1 to 251.2 °C. Besides, the IC50 in data set [1] (setting [3]) is more than 50 µM.

Molecule `COc1cc(C2CC(c3ccccc3O)=NN2S(=O)(=O)c2ccccc2)cc(OC)c1O` (centres unmarked) [b5, 4-[2-Benzenesulfonyl-5-(2-hydroxyphenyl)-3,4-dihydro-2H-pyrazol-3-yl]-2,6-dimethoxy-phenol] showed a melting point of 163.1 to 164.4 °C. In data set [1] (setting [3]), the IC50 is 28.8 ± 1.32 µM. For the same molecule, the IC50 in data set [1] (setting [4]) was less than 50 µM. Besides, in data set [2], it took 35.1 ± 2.21 µM to reach half-maximal inhibition (IC50) and the “cytotoxicity against primary hepatocytes (in words)” value was “lower cytotoxicological activity”.

Take `COc1cc(C2CC(c3ccccc3O)=NN2S(=O)(=O)c2ccc([N+](=O)[O-])cc2)cc(OC)c1O` (centres unmarked) [b8, 4-[5-(2-Hydroxyphenyl)-2-(4-nitro-benzenesulfonyl)-3,4-dihydro-2H-pyrazol-3-yl]-2,6-dimethoxy-phenol]: the melting point was 195.5 to 197 °C. Further, the 50% inhibitory concentration (IC50) in data set [1] (setting [3]) is more than 50 µM.

For the molecule `COc1cc(C2CC(c3ccccc3O)=NN2C(=O)c2cccs2)cc(OC)c1O` (centres unmarked) [b15, [5-(4-Hydroxy-3,5-dimethoxyphenyl)-3-(2-hydroxyphenyl)-4,5-dihydro-pyrazol-1-yl]-thiophen-2-yl-methanone], the melting point lay in the range of 196.1 to 197.2 °C. Also, in data set [1] (setting [3]), the IC50 was 4.51 ± 1.49 µM. Besides, in data set [2], the IC50 was 19.24 ± 0.08 µM.

On to `COc1cc(C2CC(c3ccccc3O)=NN2)cc(OC)c1O` (centres unmarked) [b1, 4-[5-(2-Hydroxyphenyl)-3,4-dihydro-2H-pyrazol-3-yl]-2,6-dimethoxy-phenol], for which the melting point lay within 140.3 to 140.7 °C. The IC50 in data set [1] (setting [3]) is more than 50 µM.

With `COc1cc(C2CC(c3ccc([N+](=O)[O-])cc3)=NN2)cc(OC)c1O` (centres unmarked) [b2, 2,6-Dimethoxy-4-[5-(4-nitrophenyl)-3,4-dihydro-2H-pyrazol-3-yl]-phenol], the melting point fell in the range of 140.7 to 141.1 °C. In addition, the IC50 in data set [1] (setting [3]) is more than 50 µM.

`COc1cc(C2CC(c3ccccc3O)=NN2C(=O)c2cccc([N+](=O)[O-])c2)cc(OC)c1O` (centres unmarked) [b11, [5-(4-Hydroxy-3,5-dimethoxyphenyl)-3-(2-hydroxyphenyl)-4,5-dihydro-pyrazol-1-yl]-(3-nitrophenyl)-methanone] showed a melting point of 207.7 to 209.3 °C. For the same molecule, the IC50 in data set [1] (setting [3]) is more than 50 µM.

`COc1cc(C2CC(c3ccccc3O)=NN2C(=O)c2ccc3ccccc3c2)cc(OC)c1O` (centres unmarked) [b14, [5-(4-Hydroxy-3,5-dimethoxyphenyl)-3-(2-hydroxyphenyl)-4,5-dihydro-pyrazol-1-yl]-naphthalen-2-yl-methanone] registered a melting point of 185.5 to 186.5 °C. The IC50 in data set [1] (setting [3]) was 18 ± 1.37 µM. Also, the half-inhibitory concentration (IC50) in data set [2] came out at 22.7 ± 1.21 µM.

On to `COc1cc(C2CC(c3ccccc3O)=NN2S(=O)(=O)c2ccccc2[N+](=O)[O-])cc(OC)c1O` (centres unmarked) [b6, 4-[5-(2-Hydroxyphenyl)-2-(2-nitro-benzenesulfonyl)-3,4-dihydro-2H-pyrazol-3-yl]-2,6-dimethoxy-phenol], for which the melting point lay within 151.1 to 152.8 °C. The concentration for half-maximal inhibition (IC50) in data set [1] (setting [3]) was more than 50 µM.

For the molecule `COc1cc(C2CC(c3ccc(C)cc3)=NN2c2ccccc2)cc(OC)c1OC` (centres unmarked) [b19, 1-Phenyl-3-p-tolyl-5-(3,4,5-trimethoxyphenyl)-4,5-dihydro-1H-pyrazole], the melting point lay in the range of 137.9 to 140.3 °C. In addition, the IC50 in data set [1] (setting [3]) is more than 50 µM.
